Entries after “also recorded” stand apart in the source; their conditions may differ.
Experiments:
THP-1 cells = assay: Cellular metabolic activity, resazurin reduction assay, THP-1; assay type: cell-based, human; settings: THP-1 monocytes, concentrations examined (abstract: up to 500 µM)
Description: (§1) The human keratinocytes (HaCaT, CLS 300493, Eppelheim, Germany) cell line was cultured with Dulbecco’s Modified Eagle’s Medium (DMEM) (Sigma-Aldrich, St. Louis, MO, USA), supplemented with 10% (v/v) of heat-inactivated fetal bovine serum (FBS), 1% (v/v) antibiotic solution (from a 10,000 U/mL penicillin and 10,000 μg/mL streptomycin stock) (Gibco, Carlsbad, CA, USA), 3.7 g/L sodium bicarbonate, and 1 mM sodium pyruvate (Sigma-Aldrich, St. Louis, MO, USA). The cell culture of keratinocytes was detached with EDTA solution 1X (Sigma-Aldrich, St. Louis, MO, USA) when the cells reached 70–80% confluence in cell culture flasks. The mouse macrophage cell line (RAW 264.7, ATCC TIB-71, Manassas, VA, USA) was cultured in DMEM supplemented with 10% (v/v) non-inactivated FBS, 1% (v/v) antibiotic solution, 1.5 g/L sodium bicarbonate, and 1 mM sodium pyruvate. Macrophages were mechanically detached with a cell scraper and subcultured in (1:10) proportion of cellular suspension to a final volume of DMEM. […] The metabolic activity of human epidermal keratinocytes (HaCaT), murine macrophages (RAW264.7), and human monocytes (THP-1) was assessed using a resazurin reduction assay. […] The absorbance was read at 570 and 620 nm using a SpectraMax Plus 384 absorbance microplate spectrophotometer (Molecular Devices, San Jose, CA, USA). […]

HaCaT cells = assay: Cellular metabolic activity, resazurin reduction assay, HaCaT; assay type: cell-based, human; settings: HaCaT keratinocytes, concentrations examined (abstract: up to 500 µM)
Description: as §1

RAW264.7 cells = assay: Cellular metabolic activity, resazurin reduction assay, RAW264.7; assay type: cell-based, mouse; settings: RAW264.7 macrophages, concentrations examined (abstract: up to 500 µM)
Description: as §1

human fibroblasts = settings: ref [15],[16],[17]; cited from earlier work
[1] = Cellular metabolic activity, resazurin reduction assay, HaCaT; assay type: cell-based, human; settings: human, HaCaT keratinocytes; HaCaT, resazurin, 24 h, concentrations greater than or equal to 500 µM; read-out: cell viability
Description: as §1

B16 cells = settings: 4 mM, compared to 3-O-ethyl ascorbic acid, ref [15],[16],[17]; cited from earlier work
[2] = design: method as in earlier work; settings: ref (2) of the supplement; read-out: DPPH scavenging EC50 (literature value); cited from earlier work

## O=C1OC(C(COS(=O)(=O)O)OS(=O)(=O)O)C(OS(=O)(=O)O)=C1OC1OC(COS(=O)(=O)O)C(OS(=O)(=O)O)C(OS(=O)(=O)O)C1OS(=O)(=O)O [AAGS, 2-O-α-D-glucopyranosyl-L-ascorbic acid persulfate]
THP-1 cells
  effect on cell viability / metabolic activity: did not adversely impact cell viability; also recorded: did not affect the metabolic activity
HaCaT cells
  effect on cell viability / metabolic activity: did not adversely impact cell viability; also recorded: did not affect the metabolic activity
RAW264.7 cells
  effect on cell viability / metabolic activity: did not adversely impact cell viability; also recorded: did not affect the metabolic activity

## O=C1O[C@H]([C@@H](O)CO)C(O)=C1O[C@H]1O[C@H](CO)[C@@H](O)[C@H](O)[C@H]1O [AAG, 2-O-α-D-glucopyranosyl-L-ascorbic acid]
Human fibroblasts
  collagen production: > 12 µg/well
[1]
  viability at 24 h: > 70%
B16 cells
  lightening effect: better lightening effect

## O=C1O[C@H]([C@@H](O)CO)C(O)=C1O [AA, Ascorbic acid]
[2]
  EC50: 16.3 ± 0.569 µM

Source: publication PMC11477482 (Molecules, 2024)
